In ChEMBL document CHEMBL3865792, “Antioxidant and antitumor activity of trolox, trolox succinate, and α-tocopheryl succinate conjugates with nitroxides” (Eur J Med Chem, 2016):

test system: not listed separately; experiment: Ratio of IC50 for human HEPG2 cells to concentration causing antioxidant activity in Salmonella typhimurium TA102 harboring […] mutant; assay type: functional; conditions: not given

SMILES | Ratio
Cc1c(C)c2c(c(C)c1O)CCC(C)(C(=O)NC1CC(C)(C)N([O])C1(C)C)O2 (stereo not given) | 100 - 1000

test system: not listed separately; experiment: Ratio of IC50 for human RPMI8226 cells to concentration causing antioxidant activity in Salmonella typhimurium TA102 harboring […] mutant; assay type: functional, RPMI-8226; conditions: not given

SMILES | Ratio
Cc1c(C)c2c(c(C)c1O)CCC(C)(C(=O)NC1CC(C)(C)N([O])C1(C)C)O2 (stereo not given) | 100 - 1000

test system: not listed separately; experiment: Cytotoxicity against human CEM13 cells assessed as reduction in cell viability after 72 hrs by MTT assay; assay type: functional, cell-based; conditions: CEM13, 72 h

SMILES | IC50 [µM]
Cc1c(C)c2c(c(C)c1OC(=O)CCC(=O)O)CC[C@@](C)(CCC[C@H](C)CCC[C@H](C)CCCC(C)C)O2 [(+)-ALPHA-TOCOPHERYL SUCCINATE] | > 300
Cc1c(C)c2c(c(C)c1O)CCC(C)(C(=O)NC1CC(C)(C)N([O])C1(C)C)O2 (stereo not given) | > 300

test system: not listed separately; experiment: Ratio of IC50 for human U937 cells to concentration causing antioxidant activity in Salmonella typhimurium TA102 harboring […] mutant; assay type: functional, U-937; conditions: not given

SMILES | Ratio
Cc1c(C)c2c(c(C)c1O)CCC(C)(C(=O)NC1CC(C)(C)N([O])C1(C)C)O2 (stereo not given) | 100 - 1000

test system: not listed separately; experiment: Cytotoxicity against human MCF7 cells assessed as reduction in cell viability after 72 hrs by MTT assay; assay type: functional, cell-based; conditions: MCF7, 72 h

SMILES | IC50 [µM]
Cc1c(C)c2c(c(C)c1OC(=O)CCC(=O)O)CC[C@@](C)(CCC[C@H](C)CCC[C@H](C)CCCC(C)C)O2 [(+)-ALPHA-TOCOPHERYL SUCCINATE] | 57
Cc1c(C)c2c(c(C)c1O)CCC(C)(C(=O)NC1CC(C)(C)N([O])C1(C)C)O2 (stereo not given) | 58

test system: Salmonella enterica subsp. enterica serovar Typhimurium; experiment: Antioxidant activity in Salmonella typhimurium TA102 harboring […] mutant assessed as inhibition of t-BuO2H-dependant mutant formation at 3 uM preincubated with compound followed by t-BuO2H addition after 48 hrs by Ames test; assay type: functional; conditions: not given

SMILES | inhibition [%]
Cc1c(C)c2c(c(C)c1OC(=O)CCC(=O)O)CC[C@@](C)(CCC[C@H](C)CCC[C@H](C)CCCC(C)C)O2 [(+)-ALPHA-TOCOPHERYL SUCCINATE] | 63.2
Cc1c(C)c2c(c(C)c1O)CCC(C)(C(=O)NC1CC(C)(C)N([O])C1(C)C)O2 (stereo not given) | 57.6

test system: not listed separately; experiment: Cytotoxicity against hamster AG17-1 cells assessed as reduction in cell viability after 72 hrs by MTT assay; assay type: toxicity, cell-based, Cricetulus griseus; conditions: Chinese hamster

SMILES | IC50 at 72 h [µM]
Cc1c(C)c2c(c(C)c1OC(=O)CCC(=O)O)CC[C@@](C)(CCC[C@H](C)CCC[C@H](C)CCCC(C)C)O2 [(+)-ALPHA-TOCOPHERYL SUCCINATE] | 50
Cc1c(C)c2c(c(C)c1O)CCC(C)(C(=O)NC1CC(C)(C)N([O])C1(C)C)O2 (stereo not given) | 194

test system: not listed separately; experiment: Ratio of IC50 for human MCF7 cells to concentration causing antioxidant activity in Salmonella typhimurium TA102 harboring […] mutant; assay type: functional; conditions: not given

SMILES | Ratio
Cc1c(C)c2c(c(C)c1O)CCC(C)(C(=O)NC1CC(C)(C)N([O])C1(C)C)O2 (stereo not given) | 100 - 1000

test system: not listed separately; experiment: Cytotoxicity against mouse LMTK cells assessed as reduction in cell viability after 72 hrs by MTT assay; assay type: toxicity; conditions: not given

SMILES | IC50 at 72 h [µM]
Cc1c(C)c2c(c(C)c1OC(=O)CCC(=O)O)CC[C@@](C)(CCC[C@H](C)CCC[C@H](C)CCCC(C)C)O2 [(+)-ALPHA-TOCOPHERYL SUCCINATE] | 73
Cc1c(C)c2c(c(C)c1O)CCC(C)(C(=O)NC1CC(C)(C)N([O])C1(C)C)O2 (stereo not given) | > 300

test system: Salmonella enterica subsp. enterica serovar Typhimurium; experiment: Antioxidant activity in Salmonella typhimurium TA102 harboring […] mutant assessed as inhibition of t-BuO2H-dependant mutant formation at 30 uM preincubated with compound followed by t-BuO2H addition after 48 hrs by Ames test; assay type: functional; conditions: not given

SMILES | inhibition [%]
Cc1c(C)c2c(c(C)c1OC(=O)CCC(=O)O)CC[C@@](C)(CCC[C@H](C)CCC[C@H](C)CCCC(C)C)O2 [(+)-ALPHA-TOCOPHERYL SUCCINATE] | 63.6
Cc1c(C)c2c(c(C)c1O)CCC(C)(C(=O)NC1CC(C)(C)N([O])C1(C)C)O2 (stereo not given) | 62

test system: Salmonella typhimurium; experiment: Genotoxicity in Salmonella typhimurium TA102 harboring […] mutant assessed as frequency of reversion from histidine auxotrophy to prototrophy at 30 mM after 48 hrs by Ames test (reference value: 209 +/- 10 No _unit); assay type: toxicity, organism-based; conditions: salmonella enterica subsp. enterica serovar typhimurium, 30000 µM

SMILES | Activity
Cc1c(C)c2c(c(C)c1OC(=O)CCC(=O)O)CC[C@@](C)(CCC[C@H](C)CCC[C@H](C)CCCC(C)C)O2 [(+)-ALPHA-TOCOPHERYL SUCCINATE] | 216
Cc1c(C)c2c(c(C)c1O)CCC(C)(C(=O)NC1CC(C)(C)N([O])C1(C)C)O2 (stereo not given) | 221

test system: not listed separately; experiment: Ratio of IC50 for human MT4 cells to concentration causing antioxidant activity in Salmonella typhimurium TA102 harboring […] mutant; assay type: functional; conditions: not given

SMILES | Ratio
Cc1c(C)c2c(c(C)c1O)CCC(C)(C(=O)NC1CC(C)(C)N([O])C1(C)C)O2 (stereo not given) | 100 - 1000

test system: not listed separately; experiment: Genotoxicity in Escherichia coli PQ37 expressing lacZ gene assessed as ratio of inducible beta-galactosidase activity to alkaline phosphatase activity at 30 mM after 2 hrs by SOS-chromotest relative to control; assay type: toxicity; conditions: Escherichia coli PQ37 cells expressing lacZ gene, read-out: FC

SMILES | fold induction at 2 h, 30000 µM
Cc1c(C)c2c(c(C)c1OC(=O)CCC(=O)O)CC[C@@](C)(CCC[C@H](C)CCC[C@H](C)CCCC(C)C)O2 [(+)-ALPHA-TOCOPHERYL SUCCINATE] | 1.1
Cc1c(C)c2c(c(C)c1O)CCC(C)(C(=O)NC1CC(C)(C)N([O])C1(C)C)O2 (stereo not given) | 1.2

test system: not listed separately; experiment: Cytotoxicity against human CEM13 cells assessed as reduction in cell viability at 300 uM after 72 hrs by MTT assay; assay type: functional; conditions: CEM13, 72 h

SMILES | inhibition at 300 µM [%]
Cc1c(C)c2c(c(C)c1OC(=O)CCC(=O)O)CC[C@@](C)(CCC[C@H](C)CCC[C@H](C)CCCC(C)C)O2 [(+)-ALPHA-TOCOPHERYL SUCCINATE] | 40
Cc1c(C)c2c(c(C)c1O)CCC(C)(C(=O)NC1CC(C)(C)N([O])C1(C)C)O2 (stereo not given) | 45

test system: not listed separately; experiment: Cytotoxicity against human HepG2 cells assessed as reduction in cell viability after 72 hrs by MTT assay; assay type: functional, cell-based; conditions: HepG2, 72 h

SMILES | IC50 [µM]
Cc1c(C)c2c(c(C)c1OC(=O)CCC(=O)O)CC[C@@](C)(CCC[C@H](C)CCC[C@H](C)CCCC(C)C)O2 [(+)-ALPHA-TOCOPHERYL SUCCINATE] | 245
Cc1c(C)c2c(c(C)c1O)CCC(C)(C(=O)NC1CC(C)(C)N([O])C1(C)C)O2 (stereo not given) | 145

test system: not listed separately; experiment: Cytotoxicity against human RPMI8226 cells assessed as reduction in cell viability after 72 hrs by MTT assay; assay type: functional, cell-based; conditions: RPMI-8226, 72 h

SMILES | IC50 [µM]
Cc1c(C)c2c(c(C)c1OC(=O)CCC(=O)O)CC[C@@](C)(CCC[C@H](C)CCC[C@H](C)CCCC(C)C)O2 [(+)-ALPHA-TOCOPHERYL SUCCINATE] | 63
Cc1c(C)c2c(c(C)c1O)CCC(C)(C(=O)NC1CC(C)(C)N([O])C1(C)C)O2 (stereo not given) | 58

test system: not listed separately; experiment: Ratio of IC50 for human CEM13 cells to concentration causing antioxidant activity in Salmonella typhimurium TA102 harboring […] mutant; assay type: functional; conditions: not given

SMILES | Ratio
Cc1c(C)c2c(c(C)c1O)CCC(C)(C(=O)NC1CC(C)(C)N([O])C1(C)C)O2 (stereo not given) | 100 - 1000

test system: not listed separately; experiment: Cytotoxicity against human MT4 cells assessed as reduction in cell viability after 72 hrs by MTT assay; assay type: functional, cell-based; conditions: MT4, 72 h

SMILES | IC50 [µM]
Cc1c(C)c2c(c(C)c1OC(=O)CCC(=O)O)CC[C@@](C)(CCC[C@H](C)CCC[C@H](C)CCCC(C)C)O2 [(+)-ALPHA-TOCOPHERYL SUCCINATE] | 66
Cc1c(C)c2c(c(C)c1O)CCC(C)(C(=O)NC1CC(C)(C)N([O])C1(C)C)O2 (stereo not given) | 144

test system: not listed separately; experiment: Cytotoxicity against human U937 cells assessed as reduction in cell viability after 72 hrs by MTT assay; assay type: functional, cell-based; conditions: U-937, 72 h

SMILES | IC50 [µM]
Cc1c(C)c2c(c(C)c1OC(=O)CCC(=O)O)CC[C@@](C)(CCC[C@H](C)CCC[C@H](C)CCCC(C)C)O2 [(+)-ALPHA-TOCOPHERYL SUCCINATE] | 113
Cc1c(C)c2c(c(C)c1O)CCC(C)(C(=O)NC1CC(C)(C)N([O])C1(C)C)O2 (stereo not given) | 98

test system: not listed separately; experiment: Cytotoxicity against mouse LMTK cells assessed as reduction in cell viability at 300 uM after 72 hrs by MTT assay; assay type: toxicity; conditions: read-out: INH

SMILES | cytotoxicity at 72 h, 300 µM [%]
Cc1c(C)c2c(c(C)c1O)CCC(C)(C(=O)NC1CC(C)(C)N([O])C1(C)C)O2 (stereo not given) | 32

test system: Salmonella enterica subsp. enterica serovar Typhimurium; experiment: Antioxidant activity in Salmonella typhimurium TA102 harboring […] mutant assessed as inhibition of t-BuO2H-dependant mutant formation at 0.3 uM preincubated with compound followed by t-BuO2H addition after 48 hrs by Ames test; assay type: functional; conditions: not given

SMILES | inhibition [%]
Cc1c(C)c2c(c(C)c1OC(=O)CCC(=O)O)CC[C@@](C)(CCC[C@H](C)CCC[C@H](C)CCCC(C)C)O2 [(+)-ALPHA-TOCOPHERYL SUCCINATE] | 56
Cc1c(C)c2c(c(C)c1O)CCC(C)(C(=O)NC1CC(C)(C)N([O])C1(C)C)O2 (stereo not given) | 55.2
